Experimental data: ChEMBL document CHEMBL1687910, “Isoindolinone inhibitors of the murine double minute 2 (MDM2)-p53 protein-protein interaction: structure-activity studies leading to improved potency” (J Med Chem, 2011)
Blank lines part the entries; values can stand above or below the compound they belong to. Calls of active or inactive are those of the source. The calls are words filed in the database; no cut-off is given here.

Key:
[1] = target: T1, E3 ubiquitin-protein ligase Mdm2 (Homo sapiens, UniProt Q00987); assay: Inhibition of Mdm2 -p53 protein interaction by ELISA
Target sequence in this assay (Q00987 whole entry): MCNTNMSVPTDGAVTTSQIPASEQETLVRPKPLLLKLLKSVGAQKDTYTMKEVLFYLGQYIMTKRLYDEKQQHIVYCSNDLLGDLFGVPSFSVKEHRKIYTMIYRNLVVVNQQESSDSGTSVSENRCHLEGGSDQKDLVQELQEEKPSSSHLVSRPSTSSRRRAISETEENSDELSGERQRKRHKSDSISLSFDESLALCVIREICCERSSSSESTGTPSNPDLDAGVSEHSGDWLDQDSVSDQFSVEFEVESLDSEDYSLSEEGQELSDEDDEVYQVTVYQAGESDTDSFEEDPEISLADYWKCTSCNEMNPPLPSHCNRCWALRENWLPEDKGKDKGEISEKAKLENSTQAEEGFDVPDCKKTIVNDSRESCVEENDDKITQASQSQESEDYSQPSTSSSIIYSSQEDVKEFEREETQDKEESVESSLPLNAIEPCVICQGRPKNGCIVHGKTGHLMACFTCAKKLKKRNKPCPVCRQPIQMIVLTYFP

[2] = target: T1, E3 ubiquitin-protein ligase Mdm2; assay: Inhibition of Mdm2 -p53 protein interaction in human […] cells assessed as induction of MDM2 protein at 1 to 20 uM after 6 hrs by Western blot analysis; format: cell-based
Target sequence in this assay (Q00987 whole entry, looked up): as the sequence (Q00987 whole entry) above

[3] = target: T1, E3 ubiquitin-protein ligase Mdm2; assay: Inhibition of Mdm2 -p53 protein interaction in human […] cells assessed as induction of p53 protein at 1 to 20 uM after 6 hrs by Western blot analysis; format: cell-based
Target sequence in this assay (Q00987 whole entry, looked up): as the sequence (Q00987 whole entry) above

[4] = target: T1, E3 ubiquitin-protein ligase Mdm2; assay: Inhibition of Mdm2 -p53 protein interaction in human […] cells assessed as induction of p21 protein at 1 to 20 uM after 6 hrs by Western blot analysis; format: cell-based
Target sequence in this assay (Q00987 whole entry, looked up): as the sequence (Q00987 whole entry) above

[5] = system: HCT-116; assay: Cytotoxicity against human p53 expressing HCT116 cells after 72 hrs by sulforhodamine B assay; format: functional; conditions: HCT-116, 72 h
[6] = system: SAOS-2; assay: Cytotoxicity against human Saos2 cells after 72 hrs by sulforhodamine B assay; format: functional; conditions: SAOS-2, 72 h
[7] = Cytotoxicity against human LS cells after 72 hrs by sulforhodamine B assay; format: functional
[8] = Cytotoxicity against human NGP cells after 72 hrs by sulforhodamine B assay; format: functional
[9] = system: HCT-116; assay: Cytotoxicity against p53 deficient human HCT116 cells after 72 hrs by sulforhodamine B assay; format: functional; conditions: HCT-116, 72 h
[10] = system: SJSA-1; assay: Cytotoxicity against human SJSA1 cells after 72 hrs by sulforhodamine B assay; format: functional; conditions: SJSA-1, 72 h
[11] = target: T1, E3 ubiquitin-protein ligase Mdm2; assay: Inhibition of Mdm2 -p53 protein interaction in human […] cells assessed as induction of p53 protein at 10 uM after 6 hrs by Western blot analysis; format: cell-based
Target sequence in this assay (Q00987 whole entry, looked up): as the sequence (Q00987 whole entry) above

[12] = target: T1, E3 ubiquitin-protein ligase Mdm2; assay: Inhibition of Mdm2 -p53 protein interaction in human […] cells assessed as induction of p21 protein at 10 uM after 6 hrs by Western blot analysis; format: cell-based
Target sequence in this assay (Q00987 whole entry, looked up): as the sequence (Q00987 whole entry) above

- IC50 [1]: 47 µM
Structure (SMILES): O=C1c2ccccc2C(O)(c2ccc(Cl)cc2)N1Cc1cccc2ccccc12 (stereo unspecified)

- IC50 [1]: 15 µM
Structure (SMILES): Cc1ccc(CN2C(=O)c3ccccc3C2(O)c2ccc(Cl)cc2)cc1 (stereo unspecified)

- IC50 [1]: 69 µM
Structure (SMILES): CCCN1C(=O)c2ccccc2C1(O)c1ccc(Cl)cc1 (stereo unspecified)

- IC50 [1]: 252 µM
Structure (SMILES): O=C1c2ccccc2C(OCC2(CO)CC2)(c2ccc(Cl)cc2)N1Cc1ccncc1 (racemic)

- IC50 [1]: 6.2 µM
Structure (SMILES): O=C1c2ccccc2C(O)(c2ccc(Cl)cc2)N1CCc1ccc([N+](=O)[O-])cc1 (stereo unspecified)

- IC50 [1]: 6.2 µM
Structure (SMILES): Nc1ccc(CCN2C(=O)c3ccccc3C2(O)c2ccc(Cl)cc2)cc1 (stereo unspecified)

- IC50 [1]: 7.2 µM
Structure (SMILES): O=C1c2ccccc2C(O)(c2ccc(Cl)cc2)N1CCc1ccccc1 (stereo unspecified)

- IC50 [1]: 6 µM
Structure (SMILES): N#Cc1ccc(CN2C(=O)c3ccccc3C2(O)c2ccc(Cl)cc2)cc1 (stereo unspecified)

- IC50 [1]: > 20 µM
Structure (SMILES): O=C(c1ccccc1)c1ccc(CN2C(=O)c3ccccc3C2(O)c2ccc(Cl)cc2)cc1 (stereo unspecified)

- IC50 [1]: 3.1 µM
Structure (SMILES): O=C1c2ccccc2C(O)(c2ccc(Br)cc2)N1Cc1ccc([N+](=O)[O-])cc1 (stereo unspecified)

More lines, now with the values behind:

Structure (SMILES): O=C1c2ccccc2C(O[C@H]2C=C[C@@H](O)C2)(c2ccc(Cl)cc2)N1Cc1ccccc1 (mixture of isomers)
- IC50 [1]: 4.7 µM

Structure (SMILES): CC(C)(CO)COC1(c2ccc(Cl)cc2)c2ccccc2C(=O)N1Cc1ccc([N+](=O)[O-])cc1 (racemic)
- inhibition [2]: Dose-dependent effect
- inhibition [3]: Dose-dependent effect
- inhibition [4]: Dose-dependent effect

Structure (SMILES): O=C1c2ccccc2C(O[C@H]2CC[C@@H](O)C2)(c2ccc(Cl)cc2)N1Cc1ccc([N+](=O)[O-])cc1 (mixture of isomers)
- IC50 [1]: 0.4 µM

Structure (SMILES): COc1ccc(C2=N[C@@H](c3ccc(Cl)cc3)[C@@H](c3ccc(Cl)cc3)N2C(=O)N2CCNC(=O)C2)c(OC(C)C)c1 [NUTLIN-3]
- GI50 [5]: 13 µM
- GI50 [6]: 18 µM
- GI50 [7]: 2.3 µM
- GI50 [8]: 2.1 µM
- GI50 [9]: 34 µM
- GI50 [10]: 2.6 µM

Structure (SMILES): O=C1c2ccccc2C(O[C@H]2CCC[C@H](O)CCC2)(c2ccc(Cl)cc2)N1Cc1ccc([N+](=O)[O-])cc1 (mixture of isomers)
- IC50 [1]: 0.38 µM
- inhibition [2]: Dose-dependent effect
- inhibition [3]: Dose-dependent effect
- inhibition [4]: Dose-dependent effect

Structure (SMILES): N#Cc1ccc(CN2C(=O)c3ccccc3C2(OCCCCO)c2ccc(Cl)cc2)cc1 (racemic)
- IC50 [1]: 3.5 µM

Structure (SMILES): O=C1c2ccccc2C(OC[C@H]2CC[C@H](CO)CC2)(c2ccc(Cl)cc2)N1Cc1ccc([N+](=O)[O-])cc1 (mixture of isomers)
- inhibition [11]: Active
- inhibition [12]: Active
- inhibition [2]: Dose-dependent effect
- inhibition [3]: Dose-dependent effect
- inhibition [4]: Dose-dependent effect
